Data published in patent publication US20230233569A1 (Revolution Medicines, Inc., priority 2020, published 2023).

Assays:
[1] = tested on: Capan-1 (K-Ras G12V); assay: CellTiter-Glo cell viability assay, 5-day treatment; format: cell-based; settings: Homo sapiens, CAPAN-1, 120 h, 5-day treatment; read-out: Capan-1 Cell Viability assay data (K-Ras G12V, IC50)
In short: (§1)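 Luminescence read-out after 5 days of compound exposure, with plates first brought to room temperature for roughly 30 minutes. Values are percent of averaged DMSO wells, fitted by four-parameter logistic regression.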

[2] = tested on: NCI-H358 (K-Ras G12C); assay: as above; format: cell-based; settings: Homo sapiens, NCI-H358, 120 h, 5-day treatment; read-out: H358 Cell Viability assay data (K-Ras G12C, IC50)
In short: as §1

[3] = target: KRAS G12C (Homo sapiens, UniProt P01116+P62937, G12C); assay: Disruption of BRAF RBD interaction with Ras (FRET / MOA assay, with Cyclophilin A); format: biochemical; settings: read-out: KRAS G12C FRET data, IC50
Sequence of KRAS G12C (P01116 1-169 isoform P01116-2 G12C): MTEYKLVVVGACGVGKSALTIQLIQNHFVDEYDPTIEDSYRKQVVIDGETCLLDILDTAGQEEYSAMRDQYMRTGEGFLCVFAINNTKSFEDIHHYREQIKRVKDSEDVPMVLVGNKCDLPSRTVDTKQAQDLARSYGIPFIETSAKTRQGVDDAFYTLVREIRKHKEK
Sequence of KRAS G12C (P62937 whole entry): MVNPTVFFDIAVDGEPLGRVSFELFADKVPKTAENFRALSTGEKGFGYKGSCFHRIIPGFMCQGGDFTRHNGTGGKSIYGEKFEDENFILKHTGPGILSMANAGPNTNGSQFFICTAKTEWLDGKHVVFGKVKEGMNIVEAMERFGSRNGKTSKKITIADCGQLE
In short: (§2)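 IC50 values reflect loss of K-Ras binding to BRAF RBD, read as a lowered TR-FRET ratio compared with DMSO, driven by compound-mediated K-Ras:Cyclophilin A complex formation. Compound top dose 30 μM final, 3-fold steps, 3 h incubation at 25 °C before a 1.5 h antibody step.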

[4] = target: KRAS G12D (Homo sapiens, UniProt P01116+P62937, G12D); assay: as above; format: biochemical; settings: read-out: KRAS G12D FRET data, IC50
Sequence of KRAS G12D (P01116 1-169 isoform P01116-2 G12D limits assumed): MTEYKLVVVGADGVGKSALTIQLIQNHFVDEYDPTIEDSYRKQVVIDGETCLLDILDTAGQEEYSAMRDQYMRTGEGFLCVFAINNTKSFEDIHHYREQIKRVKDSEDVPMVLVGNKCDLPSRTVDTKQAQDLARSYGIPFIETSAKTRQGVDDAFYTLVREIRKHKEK
Sequence of KRAS G12D (P62937 whole entry): as the sequence (P62937 whole entry) above
In short: as §2

[5] = target: KRAS G12S (Homo sapiens, UniProt P01116+P62937, G12S); assay: as above; format: biochemical; settings: read-out: KRAS G12S FRET data, IC50
Sequence of KRAS G12S (P01116 1-169 isoform P01116-2 G12S limits assumed): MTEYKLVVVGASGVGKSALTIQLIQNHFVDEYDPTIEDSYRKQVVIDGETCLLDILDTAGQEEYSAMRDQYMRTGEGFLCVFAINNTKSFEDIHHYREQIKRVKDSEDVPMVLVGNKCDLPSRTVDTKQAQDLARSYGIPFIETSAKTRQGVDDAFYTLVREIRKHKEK
Sequence of KRAS G12S (P62937 whole entry): as the sequence (P62937 whole entry) above
In short: as §2

[6] = target: KRAS G12V (Homo sapiens, UniProt P01116+P62937, G12V); assay: as above; format: biochemical; settings: KRAS G12V; read-out: KRAS G12V FRET data IC50
Sequence of KRAS G12V (P01116 1-169 isoform P01116-2 G12V limits assumed): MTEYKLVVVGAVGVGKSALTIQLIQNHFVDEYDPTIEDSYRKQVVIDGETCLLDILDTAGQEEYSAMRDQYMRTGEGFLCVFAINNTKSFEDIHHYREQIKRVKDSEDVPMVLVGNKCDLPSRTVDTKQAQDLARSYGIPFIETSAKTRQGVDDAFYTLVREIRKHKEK
Sequence of KRAS G12V (P62937 whole entry): as the sequence (P62937 whole entry) above
In short: as §2

[7] = target: KRAS G13C (Homo sapiens, UniProt P01116+P62937, G13C); assay: as above; format: biochemical; settings: read-out: KRAS G13C FRET data, IC50
Sequence of KRAS G13C (P01116 1-169 isoform P01116-2 G13C): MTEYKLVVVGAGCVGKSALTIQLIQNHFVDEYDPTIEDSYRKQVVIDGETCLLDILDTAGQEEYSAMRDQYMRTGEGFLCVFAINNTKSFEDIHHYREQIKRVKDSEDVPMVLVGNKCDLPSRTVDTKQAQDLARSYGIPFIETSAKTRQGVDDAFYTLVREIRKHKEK
Sequence of KRAS G13C (P62937 whole entry): as the sequence (P62937 whole entry) above
In short: as §2

[8] = target: KRAS G13D (Homo sapiens, UniProt P01116+P62937, G13D); assay: as above; format: biochemical; settings: KRAS G13D; read-out: KRAS G13D FRET data IC50
Sequence of KRAS G13D (P01116 1-169 isoform P01116-2 G13D limits assumed): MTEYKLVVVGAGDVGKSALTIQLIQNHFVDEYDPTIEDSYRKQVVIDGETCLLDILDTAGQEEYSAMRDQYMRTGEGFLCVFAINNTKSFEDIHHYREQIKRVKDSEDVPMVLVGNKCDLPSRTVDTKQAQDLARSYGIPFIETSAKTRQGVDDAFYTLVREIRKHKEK
Sequence of KRAS G13D (P62937 whole entry): as the sequence (P62937 whole entry) above
In short: as §2

[9] = target: KRAS WT (Homo sapiens, UniProt P01116+P62937); assay: as above; format: biochemical; settings: KRAS WT; read-out: KRAS WT FRET data IC50
Sequence of KRAS WT (P01116 1-169 isoform P01116-2 limits assumed): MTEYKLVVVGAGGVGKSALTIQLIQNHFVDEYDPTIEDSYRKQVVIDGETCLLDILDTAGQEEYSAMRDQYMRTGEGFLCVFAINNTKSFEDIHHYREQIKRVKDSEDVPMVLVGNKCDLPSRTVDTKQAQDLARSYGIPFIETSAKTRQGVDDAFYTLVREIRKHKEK
Sequence of KRAS WT (P62937 whole entry): as the sequence (P62937 whole entry) above
In short: as §2

[10] = target: NRAS G12C (Homo sapiens, UniProt P01111+P62937, G12C); assay: as above; format: biochemical; settings: NRAS G12C; read-out: NRAS G12C FRET data IC50
Sequence of NRAS G12C (P01111 whole entry G12C): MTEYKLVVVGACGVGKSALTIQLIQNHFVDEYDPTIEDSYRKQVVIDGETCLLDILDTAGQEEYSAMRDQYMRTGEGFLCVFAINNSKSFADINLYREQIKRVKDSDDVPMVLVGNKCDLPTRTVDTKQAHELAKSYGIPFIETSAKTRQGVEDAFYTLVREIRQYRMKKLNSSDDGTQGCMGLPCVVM
Sequence of NRAS G12C (P62937 whole entry): as the sequence (P62937 whole entry) above

IC50 [2] [nM]	IC50 [3] [nM]	IC50 [4] [nM]	IC50 [5] [nM]	IC50 [6] [nM]	IC50 [7] [nM]	IC50 [8] [nM]	IC50 [9] [nM]	IC50 [10] [nM]	Structure (SMILES)	IC50 [1] [nM]
10 to 100	100 to 1000	100 to 1000	100 to 1000	100 to 1000	100 to 1000	100 to 1000	100 to 1000	10 to 100	CCn1c(-c2cccnc2[C@H](C)OC)c2c3cc(ccc31)-c1csc(n1)C[C@H](NC(=O)[C@H](C(C)C)N(C)C(=O)N1C[C@H]3CN(C)C[C@H]3C1)C(=O)N1CCC[C@H](N1)C(=O)OCC(C)(C)C2 [Example A313]	10 to 100
10 to 100	100 to 1000	1000 to 10000	100 to 1000	100 to 1000	100 to 1000	100 to 1000	100 to 1000	10 to 100	CCN(CC)C1CN(C(=O)N(C)[C@H](C(=O)N[C@H]2Cc3nc(cs3)-c3ccc4c(c3)c(c(-c3cccnc3[C@H](C)OC)n4CC)CC(C)(C)COC(=O)[C@@H]3CCCN(N3)C2=O)C(C)C)C1 [Example A319]	10 to 100
10 to 100	100 to 1000	1000 to 10000	100 to 1000	100 to 1000	100 to 1000	100 to 1000	100 to 1000	100 to 1000	CCn1c(-c2cccnc2[C@H](C)OC)c2c3cc(ccc31)-c1csc(n1)C[C@H](NC(=O)[C@H](C(C)C)N(C)C(=O)N1CC(N3CCCC3)C1)C(=O)N1CCC[C@H](N1)C(=O)OCC(C)(C)C2 [Example A329]	10 to 100
100 to 1000	100 to 1000	100 to 1000	100 to 1000	100 to 1000	100 to 1000	100 to 1000	100 to 1000	100 to 1000	CCn1c(-c2cccnc2[C@H](C)OC)c2c3cc(ccc31)-c1csc(n1)C[C@H](NC(=O)[C@H](C(C)C)N(C)C(=O)N(C)CC(C)C)C(=O)N1CCC[C@H](N1)C(=O)OCC(C)(C)C2 [Example A332]	100 to 1000
10 to 100	10 to 100	100 to 1000	100 to 1000	100 to 1000	100 to 1000	100 to 1000	10 to 100	10 to 100	CCN(C(=O)N(C)[C@H](C(=O)N[C@H]1Cc2nc(cs2)-c2ccc3c(c2)c(c(-c2cccnc2[C@H](C)OC)n3CC)CC(C)(C)COC(=O)[C@@H]2CCCN(N2)C1=O)C(C)C)C(C)C [Example A333]	100 to 1000
100 to 1000	100 to 1000	1000 to 10000	1000 to 10000	1000 to 10000	1000 to 10000	1000 to 10000	100 to 1000	100 to 1000	CCn1c(-c2cccnc2[C@H](C)OC)c2c3cc(ccc31)-c1csc(n1)C[C@H](NC(=O)[C@@H](OC(=O)N1CC(N(C)C)C1)C(C)C)C(=O)N1CCC[C@H](N1)C(=O)OCC(C)(C)C2 [Example A339]	1000 to 10000
10 to 100	10 to 100	100 to 1000	100 to 1000	100 to 1000	100 to 1000	100 to 1000	100 to 1000	10 to 100	CCn1c(-c2cccnc2[C@H](C)OC)c2c3cc(ccc31)-c1csc(n1)C[C@H](NC(=O)[C@H](C(C)C)N(C)C(=O)N(C)C(C)C)C(=O)N1CCC[C@H](N1)C(=O)OCC(C)(C)C2 [Example A350]	100 to 1000
10 to 100	100 to 1000	1000 to 10000	100 to 1000	100 to 1000	100 to 1000	100 to 1000	100 to 1000	100 to 1000	CCN(C(=O)N(C)[C@H](C(=O)N[C@H]1Cc2nc(cs2)-c2ccc3c(c2)c(c(-c2cccnc2[C@H](C)OC)n3CC)CC(C)(C)COC(=O)[C@@H]2CCCN(N2)C1=O)C(C)C)C1CC1 [Example A352]	100 to 1000
10 to 100	10 to 100	100 to 1000	100 to 1000	100 to 1000	100 to 1000	100 to 1000	100 to 1000	10 to 100	CCn1c(-c2cccnc2[C@H](C)OC)c2c3cc(ccc31)-c1csc(n1)C[C@H](NC(=O)[C@H](C(C)C)N(C)C(=O)N(C)C1CC1)C(=O)N1CCC[C@H](N1)C(=O)OCC(C)(C)C2 [Example A353]	10 to 100
